The subject of series [1] is MCF7. The series is described as follows: Antiproliferative activity against human MCF7 cells assessed as cell growth inhibition incubated for 48 hrs by MTT assay. The class given is functional, cell-based. The note with it: for IC50: Homo sapiens, MCF7, 48 h.
Series [2] relates to A549. Description: Antiproliferative activity against human A549 cells assessed as cell growth inhibition incubated for 48 hrs by MTT assay. The note with it: A549, 48 h. The format is functional, cell-based. A general note: Tetrazolium assays rely on reduction of a dye to a coloured formazan, in cell work by metabolically active cells.
In series [3] the test system is HCT-116. The series is described as follows: Antiproliferative activity against human HCT-116 cells assessed as cell growth inhibition incubated for 48 hrs by MTT assay. The format is functional, cell-based. The note with it: HCT-116, 48 h.
Series [4] in a line: Antiproliferative activity against human MCF-10A cells assessed as cell growth inhibition incubated for 48 hrs by MTT assay. The format is toxicity, cell-based.
The nature of series [5]: Antiproliferative activity against human MCF-10A cells assessed as cell viability incubated for 48 hrs by MTT assay relative to control. The class given is toxicity, cell-based. Also on record: concentration or dose not given beside the values. The note with it: read-out: Activity.
A short description of series [6]: Selectivity index, ratio of IC50 for antiproliferative activity against human MCF-10A cells to IC50 for antiproliferative activity against human MCF7 cells. The class given is toxicity, cell-based. As to conditions: MCF-10A cells and MCF7 cells, read-out: Ratio IC50.
Series [7] deals with HL-60. The series is described as follows: Antiproliferative activity against human HL-60 cells. The class given is functional, cell-based.
Series [8] deals with MDA-MB-435. Description: Antiproliferative activity against human MDA-MB-435 cells. The format is functional, cell-based.
The subject of series [9] is HCT-116. Description: Antiproliferative activity against human HCT-116 cells. The class given is functional, cell-based.
The target in series [10] is Tubulin. Description: Inhibition of tubulin polymerization (unknown origin). The class given is protein-complex assay, Homo sapiens.
Series [11] has as its system MCF7. The series is described as follows: Antiproliferative activity against human MCF7 cells assessed as reduction in number of colonies incubated for 48 hrs by crystal violet staining based analysis. The format is functional, cell-based.
In series [12] the test system is MCF7. The series is described as follows: Inhibition of cell migration in human MCF7 cells assessed as reduction in migration rate incubated upto 48 hrs by scratch wound healing assay. The class given is functional, cell-based.
Series [13] deals with MCF7. The series is described as follows: Antiproliferative activity against human MCF7 cells. The format is functional, cell-based.
For series [14], the system named is ACHN. Description: Antiproliferative activity against human ACHN cells. The format is functional, cell-based.
In series [15] the test system is A549. Description: Antiproliferative activity against human A549 cells. The format is functional, cell-based.
Series [16] concerns MGC-803. Description: Antiproliferative activity against human MGC-803 cells. The format is functional, cell-based.
Series [17] concerns SW480. Description: Antiproliferative activity against human SW480 cells. The class given is functional, cell-based.
Series [18] relates to NCI-H460. The series is described as follows: Antiproliferative activity against human NCI-H460 cells. The class given is functional, cell-based.
The subject of series [19] is HeLa. Description: Antiproliferative activity against human HeLa cells. The format is functional, cell-based.

Active and inactive are the calls of the source. The calls are words filed in the database; no cut-off is given here.

The results in this text go back to ChEMBL document CHEMBL5550179, “Rutaecarpine-inspired scaffold-hopping strategy and Ullmann cross-coupling based synthetic approach: Identification of pyridopyrimidinone-indole based novel anticancer chemotypes” (Bioorg Med Chem, 2024).

What is called IC50 is the concentration at which inhibition is half-maximal. `CC(C)(C)OC(=O)n1c(-c2cc(=O)n3ccccc3n2)c(CCN2C(=O)c3ccccc3C2=O)c2ccccc21`: in series [1], the IC50 is over 20 µM.

Consider `COc1ccc2c(c1)c(CCNC(=O)c1ccc(Cl)cc1)c(-c1cc(=O)n3ccccc3n1)n2C(=O)OC(C)(C)C`, for which the IC50 was found to be 14 µM in series [1], 20 µM in [2] and 8.55 µM in series [3]. For the same compound, the IC50 at 48 h in series [4] was over 20 µM. Also, the viability at 48 h in series [5] worked out at 78.6%. For the same compound, the selectivity ratio in series [6] was over 2.25.

In [7], `O=c1c2ccccc2nc2n1CCc1c-2[nH]c2c(Cl)c(Cl)ccc12` registered an IC50 of 0.15 µM.

Turning to `O=C1c2cc(Cl)ccc2SC2c3[nH]c4ccc(O)cc4c3CCN12` (centres undefined), the IC50 in series [8] and in [9] was under 0.003 µM throughout.

In the case of `COc1cc(C(=O)NCCc2c(-c3cc(=O)n4ccccc4n3)[nH]c3ccccc23)cc(OC)c1OC`, the IC50 in series [1] is over 20 µM.

For `O=C(NCCc1c(-c2cc(=O)n3ccccc3n2)[nH]c2ccccc12)c1ccc(Cl)cc1`, in [1], the IC50 was over 20 µM.

`COc1cc(C2=NN(C(N)=O)C(c3cn(C)c4ccc(Br)cc34)C2)cc(OC)c1OC` (centres undefined) displayed an IC50 in [10] of 2.12 µM.

On to `COc1ccc(C(=O)NCCc2c(-c3cc(=O)n4ccccc4n3)n(C(=O)OC(C)(C)C)c3ccccc23)cc1`, for which the IC50 stood at 7.7 µM in series [1], 18.4 µM in series [2] and 11 µM in series [3]. Moreover, in series [4], the IC50 at 48 h is over 20 µM. Besides, the viability at 48 h in series [5] stood at 61.6%. Also, the selectivity ratio in series [6] is over 3.2. Further, the result in [11] was Active. Moreover, the inhibition entry in series [12] was “Active”.

`O=C1c2ccccc2C(=O)N1CCc1c(-c2cc(=O)n3ccccc3n2)[nH]c2ccccc12`: the IC50 in [1] was over 20 µM.

Take `CN1c2ccccc2C(=O)N2CCc3c([nH]c4ccc(Cl)cc34)C21` (centres undefined): the IC50 in series [13] and in series [14] was 1 µM each time.

As to `COc1ccc2[nH]c(-c3cc(=O)n4ccccc4n3)c(CCN3C(=O)c4ccccc4C3=O)c2c1`, the half-maximal inhibitory concentration (IC50) in series [1] is over 20 µM.

As to `CN1c2ccccc2C(=O)N2CCc3c([nH]c4ccccc34)C21` (centres undefined), the IC50 in series [15] worked out at 1.3 µM; in series [16], 12 µM; in [17] it was 10 µM.

Consider `O=C(NCCc1c[nH]c2ccccc12)c1ccc(-c2ccccc2)cc1`, for which the IC50 in [18] came out at 2 µM.

`O=c1c2ccccc2nc2n1CCc1c-2[nH]c2ccccc12` [RUTAECARPINE]: the IC50 in series [19] is 26 µM; in series [1], over 20 µM; in series [2], over 20 µM. Moreover, the IC50 at 48 h in [4] was over 20 µM. Besides, in series [5], the viability at 48 h turned out to be 60.2%. Further, the selectivity ratio in series [6] was determined as 1.2.

For the compound `O=C(O)c1ccccc1C(=O)NCCc1c(-c2cc(=O)n3ccccc3n2)[nH]c2ccccc12`, in series [1], the IC50 is over 20 µM.

In the case of `COc1ccc(C(=O)NCCc2c(-c3cc(=O)n4ccccc4n3)[nH]c3ccc(OC)cc23)cc1`, the IC50 in series [1] was over 20 µM.

With `COc1ccc2c(c1)c(CCN1C(=O)c3ccccc3C1=O)c(-c1cc(=O)n3ccccc3n1)n2C(=O)OC(C)(C)C`, the IC50 in series [1] is over 20 µM.

In turn, `O=c1c2cc(Cl)ccc2nc2n1CCc1c-2[nH]c2ccccc12` returned an IC50 in [19] of 7 µM.

Consider `CC(C)(C)OC(=O)n1c(-c2cc(=O)n3ccccc3n2)c(CCNC(=O)c2ccc(Cl)cc2)c2ccccc21`, for which the IC50 in [1] was 15.8 µM; in series [2], over 20 µM; in series [3], over 20 µM. Further, the IC50 at 48 h in series [4] is over 20 µM. Moreover, in [5], the viability at 48 h stood at 83.4%. Also, the selectivity ratio in series [6] was over 2.11.

Consider `O=c1cc(-c2ccc(Cl)cc2)nc2ccccn12`, for which half-maximal inhibition in [13] (IC50) required 1.8 µM.

As for `COc1ccc2[nH]c(-c3cc(=O)n4ccccc4n3)c(CCNC(=O)c3cc(OC)c(OC)c(OC)c3)c2c1`, the IC50 in series [1] is over 20 µM.

As for `COc1ccc2[nH]c(-c3cc(=O)n4ccccc4n3)c(CCNC(=O)c3ccc(Cl)cc3)c2c1`, the IC50 in series [1] is over 20 µM.

`O=c1[nH]cc(F)c(=O)[nH]1` [FLUOROURACIL]: the IC5 in [1] (time 48 hrs) is 6.5 µM. In addition, the IC50 in series [2] and in series [3] was over 20 µM throughout. For the same compound, the IC50 at 48 h in [4] came out at 19.5 µM. For the same compound, the viability at 48 h in series [5] came to 50%. Besides, the selectivity ratio in series [6] is 3.
